{
  "source": "patent US10981932B2",
  "about": "“Macrocyclic indole derivatives” (Bayer Aktiengesellschaft, priority 2016, dated 2021)",
  "key": {"MCL-1": {"target": "MCL-1 (Homo sapiens, UniProt Q07820)", "sequence (Q07820 whole entry)": "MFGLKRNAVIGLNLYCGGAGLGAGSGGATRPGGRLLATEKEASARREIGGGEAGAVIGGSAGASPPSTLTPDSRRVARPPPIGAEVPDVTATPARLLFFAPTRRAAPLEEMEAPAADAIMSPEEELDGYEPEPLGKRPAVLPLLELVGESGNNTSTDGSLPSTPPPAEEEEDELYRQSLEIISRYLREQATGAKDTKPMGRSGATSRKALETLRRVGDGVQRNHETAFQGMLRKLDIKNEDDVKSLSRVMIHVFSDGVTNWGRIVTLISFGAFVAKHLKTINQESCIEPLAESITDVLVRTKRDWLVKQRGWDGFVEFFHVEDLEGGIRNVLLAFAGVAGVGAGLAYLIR", "assay": "Protein-protein interaction assay MCL-1/Noxa BH3 peptide (MCL-1 assay), TR-FRET", "format": "binding", "conditions": "MBP-MCL-1 / Noxa BH3-derived peptide, median", "procedure,_shortened": "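MBP-MCL-1 (1 nM final) was preincubated 10 min at 22 °C with compounds (11 concentrations, 0.1 nM–20 μM, duplicates) in Tris pH 7 buffer with NaCl, KF, Tween-20, DTT and BGG. After 1 h at 22 °C in the dark plus overnight at 4 °C, anti-MBP Eu-cryptate/streptavidin-XL665 TR-FRET was read; IC50 came from a 4-parameter fit.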"}, "SUDHL5 [1]": {"test_system": "SUDHL5", "assay": "Induction of caspase-3/7 activity (Caspase-Glo 3/7), SUDHL5", "format": "cell-based", "conditions": "Homo sapiens, SU-DHL-5, 3 h, caspase-3/7 induction, SUDHL5 cells, 3 h treatment; median", "procedure,_shortened": "(§1)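 Caspase-Glo 3/7 luminescence measured after 3 h compound exposure at 37 °C in SUDHL10 and SUDHL5 cells. EC50 values come from background-corrected signals, with curve bottom set to 1 and plateau set to maximal induction by the reference compound.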"}, "SUDHL10 [2]": {"test_system": "SUDHL10", "assay": "Induction of caspase-3/7 activity (Caspase-Glo 3/7), SUDHL10", "format": "cell-based", "conditions": "Homo sapiens, SU-DHL10, 3 h, caspase-3/7 induction, SUDHL10 cells, 3 h treatment; median", "procedure,_shortened": "as §1"}, "SUDHL5 [3]": {"test_system": "SUDHL5", "assay": "Anti-proliferative effect (CellTiter-Glo, 72 h), SUDHL5", "format": "cell-based", "conditions": "Homo sapiens, SU-DHL-5, 72 h, SUDHL5 cells, antiproliferation, 72 h incubation, median, read-out: Antiproli SUDHL5 [M] (median)", "procedure,_shortened": "(§2)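 Anti-proliferative activity is derived from ATP-based luminescence (CellTiter-Glo) in cells exposed to compound for 72 h at 37 °C, set against a time zero plate read at seeding.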"}, "SUDHL10 [4]": {"test_system": "SUDHL10", "assay": "Anti-proliferative effect (CellTiter-Glo, 72 h), SUDHL10", "format": "cell-based", "conditions": "Homo sapiens, SU-DHL10, 72 h, SUDHL10 cells, antiproliferation, 72 h incubation, median, read-out: Antiproli SUDHL10 [M] (median)", "procedure,_shortened": "as §2"}, "OPM2": {"test_system": "OPM2", "assay": "Anti-proliferative effect (CellTiter-Glo, 72 h), OPM2", "format": "cell-based", "conditions": "Homo sapiens, OPM-2, 72 h, OPM2 cells, median, read-out: IC50 antiproliferation assay OPM2 [M] (median)", "procedure,_shortened": "as §2"}, "A2780": {"test_system": "A2780", "assay": "Anti-proliferative effect (CellTiter-Glo, 72 h), A2780", "format": "cell-based", "conditions": "Homo sapiens, A2780, 72 h, A2780 cells, median, read-out: IC50 antiproliferation assay A2780 [M] (median)", "procedure,_shortened": "as §2"}, "SUDHL5 [5]": {"test_system": "SUDHL5", "assay": "Induction of cytotoxicity (CellTiter-Glo, 5 h), SUDHL5", "conditions": "Homo sapiens, SU-DHL-5, 5 h, read-out: Cytotox SUDHL5 [M] (median), SUDHL5 cells, cytotoxicity induction, CellTiter-Glo, 5 h incubation, median"}, "SUDHL10 [6]": {"test_system": "SUDHL10", "assay": "Induction of cytotoxicity (CellTiter-Glo, 5 h), SUDHL10", "conditions": "Homo sapiens, SU-DHL10, 5 h, read-out: Cytotox SUDHL10 [M] (median), SUDHL10 cells, cytotoxicity induction, CellTiter-Glo, 5 h incubation, median"}},
  "data": [
    {"compound": "CN1CCCn2c(C(=O)O)c(CCCOc3cccc4ccccc34)c3cccc(c32)-c2c(COc3ccc(C4CCOCC4)cc3)nn(C)c2C1", "note": "(single isomer, unassigned) [Example 1-58, (+)-7,9-dimethyl-1-[3-(naphthalen-1-yloxy)propyl]-11-{[4-(tetrahydro-2H-pyran-4-yl)phenoxy]methyl}-4,5,6,7,8,9-hexahydropyrazolo[3′,4′:7,8][1,5]diazecino[9,10,1-hi]indole-2-carboxylic Acid]", "values": [
      {"measurement": "IC50", "setting": "MCL-1", "result": 0.0189, "unit": "µM"},
      {"measurement": "EC50", "setting": "SUDHL5 [1]", "result": 12.2, "unit": "µM"},
      {"measurement": "EC50", "setting": "SUDHL10 [2]", "result": 17.3, "unit": "µM"},
      {"measurement": "IC50", "setting": "SUDHL5 [3]", "result": "1.17e-05", "unit": "M"},
      {"measurement": "IC50", "setting": "SUDHL10 [4]", "result": "7.32e-06", "unit": "M"},
      {"measurement": "IC50", "setting": "OPM2", "result": "2.01e-05", "unit": "M"},
      {"measurement": "IC50", "setting": "A2780", "result": "1.31e-05", "unit": "M"},
      {"measurement": "IC50", "setting": "SUDHL5 [5]", "result": "1.2e-05", "unit": "M"},
      {"measurement": "IC50", "setting": "SUDHL10 [6]", "result": "2.14e-05", "unit": "M"}
    ]},
    {"compound": "Cn1nc(COc2ccc(C3(O)CCOCC3)cc2)c2c1COCC=CCn1c(C(=O)O)c(CCCOc3cccc4ccccc34)c3cccc-2c31", "note": "(racemic) [Example 1-60, (rac)-(E/Z)-3-{[4-(4-hydroxytetrahydro-2H-pyran-4-yl)phenoxy]methyl}-1-methyl-7-[3-(naphthalen-1-yloxy)propyl]-1,10,13,15-tetrahydropyrazolo[4′,3′ 9,10][1,6]oxazacycloundecino[8,7,6-hi]indole-8-carboxylic Acid]", "values": [
      {"measurement": "IC50", "setting": "MCL-1", "result": 0.0171, "unit": "µM"},
      {"measurement": "EC50", "setting": "SUDHL5 [1]", "result": 19.5, "unit": "µM"},
      {"measurement": "EC50", "setting": "SUDHL10 [2]", "result": 25.9, "unit": "µM"},
      {"measurement": "IC50", "setting": "SUDHL5 [3]", "result": "1.3e-05", "unit": "M"},
      {"measurement": "IC50", "setting": "SUDHL10 [4]", "result": "9.02e-06", "unit": "M"},
      {"measurement": "IC50", "setting": "OPM2", "result": "> 3.3e-05", "unit": "M"},
      {"measurement": "IC50", "setting": "A2780", "result": "2.88e-05", "unit": "M"},
      {"measurement": "IC50", "setting": "SUDHL5 [5]", "result": "2.1e-05", "unit": "M"},
      {"measurement": "IC50", "setting": "SUDHL10 [6]", "result": "3.27e-05", "unit": "M"}
    ]},
    {"compound": "COCCn1nc2c(c1C)-c1cccc3c(CCCOc4cccc5ccccc45)c(C(=O)O)n(c13)C/C=C\\COC2", "note": "(racemic) [Example 071, (rac)-(11Z)-2-(2-methoxyethyl)-3-methyl-7-[3-(naphthalen-1-yloxy)propyl]-2,10,13,15-tetrahydropyrazolo[4′,3′:9,10][1,6]oxazacycloundecino[8,7,6-hi]indole-8-carboxylic Acid]", "values": [
      {"measurement": "IC50", "setting": "MCL-1", "result": 0.00412, "unit": "µM"},
      {"measurement": "EC50", "setting": "SUDHL5 [1]", "result": 5.04, "unit": "µM"},
      {"measurement": "EC50", "setting": "SUDHL10 [2]", "result": 11.1, "unit": "µM"},
      {"measurement": "IC50", "setting": "SUDHL5 [3]", "result": "6.23e-06", "unit": "M"},
      {"measurement": "IC50", "setting": "SUDHL10 [4]", "result": "2.59e-06", "unit": "M"},
      {"measurement": "IC50", "setting": "OPM2", "result": "1.3e-05", "unit": "M"},
      {"measurement": "IC50", "setting": "A2780", "result": "1.89e-05", "unit": "M"},
      {"measurement": "IC50", "setting": "SUDHL5 [5]", "result": "7.45e-06", "unit": "M"},
      {"measurement": "IC50", "setting": "SUDHL10 [6]", "result": "1.76e-05", "unit": "M"}
    ]},
    {"compound": "Cc1nn(C)c2c1-c1cccc3c(CCCOc4cccc5ccccc45)c(C(=O)O)n(c13)CCCCOC2", "note": "(racemic) [Example 1-33, (rac)-1,3-dimethyl-7-[3-(naphthalen-1-yloxy)propyl]-1,10,11,12,13,15-hexahydropyrazolo[4′,3′:9,10][1,6]oxazacycloundecino[8,7,6-hi]indole-8-carboxylic Acid]", "values": [
      {"measurement": "IC50", "setting": "MCL-1", "result": 0.009, "unit": "µM"},
      {"measurement": "EC50", "setting": "SUDHL5 [1]", "result": 5.78, "unit": "µM"},
      {"measurement": "EC50", "setting": "SUDHL10 [2]", "result": 13.7, "unit": "µM"},
      {"measurement": "IC50", "setting": "SUDHL5 [3]", "result": "9.78e-06", "unit": "M"},
      {"measurement": "IC50", "setting": "SUDHL10 [4]", "result": "1.83e-05", "unit": "M"},
      {"measurement": "IC50", "setting": "OPM2", "result": "2.23e-05", "unit": "M"},
      {"measurement": "IC50", "setting": "A2780", "result": "> 3.3e-05", "unit": "M"},
      {"measurement": "IC50", "setting": "SUDHL5 [5]", "result": "7.47e-06", "unit": "M"},
      {"measurement": "IC50", "setting": "SUDHL10 [6]", "result": "2.19e-05", "unit": "M"}
    ]},
    {"compound": "Cc1c2c(nn1C)COC/C=C\\Cn1c(C(=O)O)c(CCCOc3cccc4ccccc34)c3cccc-2c31", "note": "(racemic) [Example 062, (rac)-(11Z)-2,3-dimethyl-7-[3-(naphthalen-1-yloxy)propyl]-2,10,13,15-tetrahydropyrazolo[4′,3′:9,10][1,6]oxazacycloundecino[8,7,6-hi]indole-8-carboxylic Acid]", "values": [
      {"measurement": "IC50", "setting": "MCL-1", "result": 0.0131, "unit": "µM"},
      {"measurement": "EC50", "setting": "SUDHL5 [1]", "result": 5.9, "unit": "µM"},
      {"measurement": "EC50", "setting": "SUDHL10 [2]", "result": 18.1, "unit": "µM"},
      {"measurement": "IC50", "setting": "SUDHL5 [3]", "result": "4.17e-06", "unit": "M"},
      {"measurement": "IC50", "setting": "SUDHL10 [4]", "result": "4.49e-06", "unit": "M"},
      {"measurement": "IC50", "setting": "OPM2", "result": "1.67e-05", "unit": "M"},
      {"measurement": "IC50", "setting": "A2780", "result": "2.26e-05", "unit": "M"},
      {"measurement": "IC50", "setting": "SUDHL5 [5]", "result": "6.67e-06", "unit": "M"},
      {"measurement": "IC50", "setting": "SUDHL10 [6]", "result": "2.43e-05", "unit": "M"}
    ]}
  ]
}
